Test results reported in patent US10052331B2, “3-(3H-imidazo[4,5-C]pyridin-2-yl)-1H-pyrazolo[3,4-C]pyridine and therapeutic uses thereof” (Samumed, LLC, priority 2014, dated 2018).

Legend:
[1] = system: primary human fibroblasts derived from IPF patients (LL29 cells); experiment: Inhibition of fibrotic process: αSMA staining in TGF-β1-treated primary human fibroblasts from IPF patients (LL29 cells); type: cell-based; conditions: Fibroblast, 96 h, LL29 cells treated with TGF-β1 (20 ng/mL), 4 days, 11-point dose-response from 10 μM to 1.87 nM, read-out: Inhibition of fibrosis EC50
Source text: The above synthesized compounds were screened using primary human fibroblasts (derived from IPF patients) treated with TGF-β1 to determine their ability to inhibit the fibrotic process.
Primary human fibroblasts derived from IPF patients (LL29 cells) [^1Xiaoqiu Liu, et. al., “Fibrotic Lung Fibroblasts Show Blunted Inhibition by cAMP Due to Deficient cAMP Response Element-Binding Protein Phosphorylation”, Journal of Pharmacology and Experimental Therapeutics (2005), 315(2), 678-687; ^2Watts, K. L., et. al., “RhoA signaling modulates cyclin D1 expression in human lung fibroblasts; implications for idiopathic pulmonary fibrosis”, Respiratory Research (2006), 7(1), 88] were obtained from American Type Culture Collection (ATCC) and expanded in F12 medium supplemented with 15% Fetal Bovine Serum and Penicillin/Streptomycin.
Each compound was dissolved in DMSO as a 10 mM stock and used to prepare compound source plates. Serial dilution (1:2, 11-point dose-response curves from 10 μM to 1.87 nM) and compound transfer was performed using the ECHO 550 (Labcyte, Sunnyvale, Calif.) into 384-well clear bottom assay plates (Greiner Bio-One) with appropriate DMSO backfill for a final DMSO concentration of 0.1%. LL29 cells were plated at 1,500 cells/well in 80 μl/well F12 medium supplemented with 1% Fetal Bovine Serum. One hour after addition of the cells, TGF-β1 (Peprotech; 20 ng/mL) was added to the plates to induce fibrosis (ref. 1 and 2 above). Wells treated with TGF-β1 and containing DMSO were used as controls. Cells were incubated at 37° C. and 5% CO2 for 4 days. Following incubation for 4 days, SYTOX green nucleic acid stain (Life Technologies [Thermo Fisher Scientific]) was added to the wells at a final concentration of 1 uM and incubated at room temperature for 30 min. Cells were then fixed using 4% formaldehyde (Electron Microscopy Sciences), washed 3 times with PBS followed by blocking and permeabilization using 3% Bovine Serum Albumin (BSA; Sigma) and 0.3% Triton X-100 (Sigma) in PBS. Cells were then stained with antibody specific to α-smooth muscle actin (αSMA; Abcam) (ref. 1 and 2 above) in 3% Bovine Serum Albumin (BSA; Sigma) and 0.3% Triton X-100 (Sigma) in PBS, and incubated overnight at 4° C. Cells were then washed 3 times with PBS, followed by incubation with Alexa Flor-647 conjugated secondary antibody (Life Technologies [Thermo Fisher Scientific]) and DAPI at room temperature for 1 hour. Cells were then washed 3 times with PBS and plates were sealed for imaging. αSMA staining was imaged by excitation at 630 nm and emission at 665 nm and quantified using the Compartmental Analysis program on the CellInsight CX5 (Thermo Scientific). Dead or apoptotic cells were excluded from analysis based on positive SYTOX green staining. % of total cells positive for αSMA were counted in each well and normalized to the average of 11 wells treated with TGF-β1 on the same plate using Dotmatics' Studies Software. The normalized averages (fold change over untreated) of 3 replicate wells for each compound concentration were used to create dose-responses curves and EC50 values were calculated using non-linear regression curve fit in the Dotmatics' Studies Software. The EC50 values are reported.

[2] = system: Wnt activity (Wnt-responsive Sp5 promoter-luciferase reporter in SW480 cells); experiment: Wnt activity screening assay: Sp5-Luc reporter gene in SW480 colon carcinoma cells; type: cell-based; conditions: Homo sapiens
Outline: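 IC50 values come from variable-slope four-parameter fits of luciferase signal normalized to DMSO wells. Stable Sp5-Luc reporter SW480 colon carcinoma cells were exposed to compounds in a 3-fold dilution series (source plates from 10 mM stock) for forty-two hours at 37 °C.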

**Q.** CN(C)Cc1cncc(-c2cc3c(-c4nc5c(N6CCCCC6)cncc5[nH]4)n[nH]c3cn2)c1 [Compound 169, N,N-Dimethyl-1-(5-(3-(7-(piperidin-1-yl)-3H-imidazo[4,5-c]pyridin-2-yl)-1H-pyrazolo[3,4-c]pyridin-5-yl)pyridin-3-yl)methanamine] was tested. Which EC50 [1] did it give?
**A.** 74 nM

**Q.** And the IC50 [2]?
**A.** 122 nM

**Q.** With O=C(Nc1cncc(-c2cc3c(-c4nc5c(N6CCCCC6)cncc5[nH]4)n[nH]c3cn2)c1)C1CC1 [Compound 175, N-(5-(3-(7-(Piperidin-1-yl)-3H-imidazo[4,5-c]pyridin-2-yl)-1H-pyrazolo[3,4-c]pyridin-5-yl)pyridin-3-yl)cyclopropanecarboxamide] as the compound, how does the EC50 [1] read?
**A.** ≤ 9 nM

**Q.** And the IC50 [2]?
**A.** 820 nM

**Q.** With CN1CCN(c2cncc3[nH]c(-c4n[nH]c5cnc(-c6cncc(N)c6)cc45)nc23)CC1 [Compound 211, 5-(3-(7-(4-Methylpiperazin-1-yl)-3H-imidazo[4,5-c]pyridin-2-yl)-1H-pyrazolo[3,4-c]pyridin-5-yl)pyridin-3-amine] as the compound, how does the EC50 [1] read?
**A.** ≤ 9 nM

**Q.** What about the IC50 [2] of the same compound?
**A.** > 10000 nM

**Q.** CC(C)C(=O)Nc1cncc(-c2cc3c(-c4nc5c(N6CCN(C)CC6)cncc5[nH]4)n[nH]c3cn2)c1 [Compound 217, N-(5-(3-(7-(4-Methylpiperazin-1-yl)-3H-imidazo[4,5-c]pyridin-2-yl)-1H-pyrazolo[3,4-c]pyridin-5-yl)pyridin-3-yl)isobutyramide] was tested. Which EC50 [1] did it give?
**A.** ≥ 9990 nM

**Q.** What about the IC50 [2] of the same compound?
**A.** 557 nM

**Q.** CN1CCN(c2cncc3[nH]c(-c4n[nH]c5cnc(-c6cncc(CN7CCCCC7)c6)cc45)nc23)CC1 [Compound 223, 3-(7-(4-Methylpiperazin-1-yl)-3H-imidazo[4,5-c]pyridin-2-yl)-5-(5-(piperidin-1-ylmethyl)pyridin-3-yl)-1H-pyrazolo[3,4-c]pyridine] was tested. Which EC50 [1] did it give?
**A.** ≥ 9990 nM

**Q.** What about the IC50 [2] of the same compound?
**A.** 1380 nM

**Q.** Which results are given for CN1CCN(c2cncc3[nH]c(-c4n[nH]c5cnc(-c6cncc(NC(=O)C7CCCC7)c6)cc45)nc23)CC1 [Compound 229, N-(5-(3-(7-(4-Methylpiperazin-1-yl)-3H-imidazo[4,5-c]pyridin-2-yl)-1H-pyrazolo[3,4-c]pyridin-5-yl)pyridin-3-yl)cyclopentanecarboxamide]?
**A.** EC50 [1]: ≥ 9990 nM; IC50 [2]: 440 nM

**Q.** What does the source list for CN1CCN(c2cncc3[nH]c(-c4n[nH]c5cnc(-c6cncnc6)cc45)nc23)CC1 [Compound 234, 3-(7-(4-methylpiperazin-1-yl)-3H-imidazo[4,5-c]pyridin-2-yl)-5-(pyrimidin-5-yl)-1H-pyrazolo[3,4-c]pyridine]?
**A.** EC50 [1]: 966 nM; IC50 [2]: 379 nM

**Q.** Which results are given for Cc1ccncc1-c1cc2c(-c3nc4c(-c5ccsc5)cncc4[nH]3)n[nH]c2cn1 [Compound 239, 5-(4-Methylpyridin-3-yl)-3-(7-(thiophen-3-yl)-3H-imidazo[4,5-c]pyridin-2-yl)-1H-pyrazolo[3,4-c]pyridine]?
**A.** EC50 [1]: ≤ 9 nM; IC50 [2]: 40 nM

**Q.** What does the source list for c1ccc(CNCc2cncc(-c3cc4c(-c5nc6c(-c7ccsc7)cncc6[nH]5)n[nH]c4cn3)c2)cc1 [Compound 257, N-Benzyl-1-(5-(3-(7-(thiophen-3-yl)-3H-imidazo[4,5-c]pyridin-2-yl)-1H-pyrazolo[3,4-c]pyridin-5-yl)pyridin-3-yl)methanamine]?
**A.** EC50 [1]: 2630 nM; IC50 [2]: 653 nM

**Q.** Which EC50 [1] does the source give for CCNCc1cncc(-c2cc3c(-c4nc5c(-c6ccoc6)cncc5[nH]4)n[nH]c3cn2)c1 [Compound 266, N-((5-(3-(7-(Furan-3-yl)-3H-imidazo[4,5-c]pyridin-2-yl)-1H-pyrazolo[3,4-c]pyridin-5-yl)pyridin-3-yl)methyl)ethanamine] here?
**A.** ≥ 9990 nM

**Q.** What about the IC50 [2] of the same compound?
**A.** > 10000 nM

**Q.** Which EC50 [1] does the source give for CC(C)Nc1cncc(-c2cc3c(-c4nc5c(-c6ccoc6)cncc5[nH]4)n[nH]c3cn2)c1 [Compound 272, 5-(3-(7-(Furan-3-yl)-3H-imidazo[4,5-c]pyridin-2-yl)-1H-pyrazolo[3,4-c]pyridin-5-yl)-N-isopropylpyridin-3-amine] here?
**A.** ≤ 9 nM

**Q.** What about the IC50 [2] of the same compound?
**A.** 37.6 nM

**Q.** c1cc(-c2cncc3[nH]c(-c4n[nH]c5cnc(-c6cncc(CNCC7CCCC7)c6)cc45)nc23)co1 [Compound 284, 1-Cyclopentyl-N-((5-(3-(7-(furan-3-yl)-3H-imidazo[4,5-c]pyridin-2-yl)-1H-pyrazolo[3,4-c]pyridin-5-yl)pyridin-3-yl)methyl)methanamine] was tested. Which EC50 [1] did it give?
**A.** 908 nM

**Q.** What about the IC50 [2] of the same compound?
**A.** 261 nM

**Q.** What does the source list for CN(C)c1cncc(-c2cc3c(-c4nc5c(-c6cccs6)cncc5[nH]4)n[nH]c3cn2)c1 [Compound 293, N,N-Dimethyl-5-(3-(7-(thiophen-2-yl)-3H-imidazo[4,5-c]pyridin-2-yl)-1H-pyrazolo[3,4-c]pyridin-5-yl)pyridin-3-amine]?
**A.** EC50 [1]: ≤ 9 nM; IC50 [2]: 319 nM

**Q.** CN(C)Cc1cncc(-c2cc3c(-c4nc5c(-c6cccs6)cncc5[nH]4)n[nH]c3cn2)c1 [Compound 299, N,N-Dimethyl-1-(5-(3-(7-(thiophen-2-yl)-3H-imidazo[4,5-c]pyridin-2-yl)-1H-pyrazolo[3,4-c]pyridin-5-yl)pyridin-3-yl)methanamine] was tested. Which EC50 [1] did it give?
**A.** ≤ 9 nM

**Q.** And the IC50 [2]?
**A.** 588 nM

**Q.** O=C(Nc1cncc(-c2cc3c(-c4nc5c(-c6cccs6)cncc5[nH]4)n[nH]c3cn2)c1)C1CC1 [Compound 305, N-(5-(3-(7-(Thiophen-2-yl)-3H-imidazo[4,5-c]pyridin-2-yl)-1H-pyrazolo[3,4-c]pyridin-5-yl)pyridin-3-yl)cyclopropanecarboxamide] was tested. Which EC50 [1] did it give?
**A.** > 10000 nM

**Q.** And the IC50 [2]?
**A.** 35.1 nM

**Q.** Which results are given for FC1(F)CCN(Cc2cncc(-c3cc4c(-c5nc6c(-c7cccs7)cncc6[nH]5)n[nH]c4cn3)c2)C1 [Compound 311, 5-(5-((3,3-Difluoropyrrolidin-1-yl)methyl)pyridin-3-yl)-3-(7-(thiophen-2-yl)-3H-imidazo[4,5-c]pyridin-2-yl)-1H-pyrazolo[3,4-c]pyridine]?
**A.** EC50 [1]: 254 nM; IC50 [2]: 70.5 nM

**Q.** For Fc1ccc(-c2cncc3[nH]c(-c4n[nH]c5cnc(-c6cncc(CN7CCCC7)c6)cc45)nc23)s1 [Compound 326, 3-(7-(5-Fluorothiophen-2-yl)-3H-imidazo[4,5-c]pyridin-2-yl)-5-(5-(pyrrolidin-1-ylmethyl)pyridin-3-yl)-1H-pyrazolo[3,4-c]pyridine], which EC50 [1] is on record?
**A.** ≤ 9 nM

**Q.** What about the IC50 [2] of the same compound?
**A.** 772 nM

**Q.** Which results are given for O=C(Nc1cncc(-c2cc3c(-c4nc5c(-c6ccc(F)s6)cncc5[nH]4)n[nH]c3cn2)c1)C1CCC1 [Compound 332, N-(5-(3-(7-(5-Fluorothiophen-2-yl)-3H-imidazo[4,5-c]pyridin-2-yl)-1H-pyrazolo[3,4-c]pyridin-5-yl)pyridin-3-yl)cyclobutanecarboxamide]?
**A.** EC50 [1]: 1050 nM; IC50 [2]: 32.8 nM

**Q.** With CCNCc1cncc(-c2cc3c(-c4nc5c(-c6ccc(C)s6)cncc5[nH]4)n[nH]c3cn2)c1 [Compound 344, N-((5-(3-(7-(5-Methylthiophen-2-yl)-3H-imidazo[4,5-c]pyridin-2-yl)-1H-pyrazolo[3,4-c]pyridin-5-yl)pyridin-3-yl)methyl)ethanamine] as the compound, how does the EC50 [1] read?
**A.** 60 nM

**Q.** And the IC50 [2]?
**A.** 25.4 nM

**Q.** With Cc1ccc(-c2cncc3[nH]c(-c4n[nH]c5cnc(-c6cncc(NC(=O)C(C)(C)C)c6)cc45)nc23)s1 [Compound 346, N-(5-(3-(7-(5-Methylthiophen-2-yl)-3H-imidazo[4,5-c]pyridin-2-yl)-1H-pyrazolo[3,4-c]pyridin-5-yl)pyridin-3-yl)pivalamide] as the compound, how does the EC50 [1] read?
**A.** 30 nM

**Q.** And the IC50 [2]?
**A.** 17 nM

**Q.** For Cc1ccc(-c2cncc3[nH]c(-c4n[nH]c5cnc(-c6cncc(NC(=O)C(C)C)c6)cc45)nc23)s1 [Compound 347, N-(5-(3-(7-(5-Methylthiophen-2-yl)-3H-imidazo[4,5-c]pyridin-2-yl)-1H-pyrazolo[3,4-c]pyridin-5-yl)pyridin-3-yl)isobutyramide], which EC50 [1] is on record?
**A.** ≤ 9 nM

**Q.** What about the IC50 [2] of the same compound?
**A.** 7.5 nM
